Molecules are shown by their SMILES.

A short description of this assay: Inhibition interleukin-5 in mouse Y16 cells after 48 hrs by WST-1 assay.
Consider `O=C(CCc1coc2cccc(OCC3CCCCC3)c2c1=O)c1ccc(Cl)c(Cl)c1`, for which the IC50 (as a rule, the midpoint of a concentration-inhibition curve) is 22 µM.

`COc1ccc(C(=O)CCC2COc3cccc(OCC4CCCCC4)c3C2=O)cc1` (centres undefined): the IC50 was over 30 µM.

In turn, `Cc1ccc(C(=O)CCc2coc3cccc(OCC4CCCCC4)c3c2=O)cc1` returned an IC50 of over 30 µM.

`CC(C)(C)c1ccc(C(=O)CCc2coc3cccc(OCC4CCCCC4)c3c2=O)cc1` had an IC50 of over 30 µM.

On to `O=C(CCc1coc2cccc(OCC3CCCCC3)c2c1=O)c1ccccc1`, for which the IC50 is over 30 µM.

Regarding `O=C(CCC1COc2cccc(OCC3CCCCC3)c2C1=O)c1ccc(Cl)c(Cl)c1` (centres undefined), the IC50 was over 30 µM.

As for `O=c1c(CCC(O)c2ccc(O)cc2)coc2cccc(OCC3CCCCC3)c12` (centres undefined), the IC50 came to 4 µM.

Molecule `O=c1c(CCC(O)c2ccc(Cl)cc2)coc2cccc(OCC3CCCCC3)c12` (centres undefined) displayed an IC50 of 9 µM.

`O=C(CCc1coc2cccc(OCC3CCCCC3)c2c1=O)c1ccc2ccccc2c1` displayed an IC50 of over 30 µM.

Regarding `O=c1c(CCC(O)c2ccc(Cl)c(Cl)c2)coc2cccc(OCC3CCCCC3)c12` (centres undefined), the IC50 amounted to 7.9 µM.

The molecule `O=C(CCc1coc2cccc(OCC3CCCCC3)c2c1=O)c1ccc(Cl)cc1` came in with an IC50 of 14 µM.

On to `O=C(CCc1coc2cccc(OCC3CCCCC3)c2c1=O)c1ccc(C(F)(F)F)cc1`, for which the IC50 was over 30 µM.

`COc1ccc(C(O)CCc2coc3cccc(OCC4CCCCC4)c3c2=O)cc1` (centres undefined) showed an IC50 of 6.5 µM.

Regarding `O=c1c(CCC(O)c2ccc(F)cc2)coc2cccc(OCC3CCCCC3)c12` (centres undefined), half-maximal inhibition (IC50) required 9 µM.

Turning to `N#Cc1ccc(C(O)CCc2coc3cccc(OCC4CCCCC4)c3c2=O)cc1` (centres undefined), the IC50 stood at 15 µM.

Turning to `COc1ccc(C(=O)CCc2coc3cccc(OCC4CCCCC4)c3c2=O)cc1`, it took 16 µM to reach half-maximal inhibition (IC50).

`O=C(CCc1coc2cccc(OCC3CCCCC3)c2c1=O)c1ccc(F)cc1` had an IC50 of 20 µM.

Turning to `Cc1ccc(C(O)CCc2coc3cccc(OCC4CCCCC4)c3c2=O)cc1` (centres undefined), the IC50 was over 30 µM.

The molecule `O=C(CCc1coc2cccc(OCC3CCCCC3)c2c1=O)c1ccc(O)cc1` showed an IC50 of 15 µM.

With `O=c1c(CCC(O)c2ccc(C(F)(F)F)cc2)coc2cccc(OCC3CCCCC3)c12` (centres undefined), the IC50 is over 30 µM.

With `O=c1c(CCC(O)c2ccc3ccccc3c2)coc2cccc(OCC3CCCCC3)c12` (centres undefined), the IC50 came out at 17 µM.

With `O=c1c(CCC(O)c2ccccc2)coc2cccc(OCC3CCCCC3)c12` (centres undefined), it took 12 µM to reach half-maximal inhibition (IC50).

`N#Cc1ccc(C(=O)CCc2coc3cccc(OCC4CCCCC4)c3c2=O)cc1` displayed an IC50 of 17 µM.

`CC(C)(C)c1ccc(C(O)CCc2coc3cccc(OCC4CCCCC4)c3c2=O)cc1` (centres undefined): the IC50 was over 30 µM.

(Values after BindingDB's records for doi:10.1016/j.bmc.2013.02.037 (Chungnam National University, 2013).)
